Results published in patent US4133805A, “Cyclic undecapeptides related to somatostatin and intermediates therefor” (American Home Products Corporation, priority 1975, dated 1979).

Columns and labels:
Type in all cases: in vivo, Albino male rats
[1] = system: growth hormone; experiment: Test Procedure II: arginine-stimulated plasma growth hormone in nembutal-treated rats; details: p = <0.01
Procedure: (§1) Albino male rats are arranged in three groups (nine rats/group) and injected i.p. with nembutal at 50 mg/kg. Fifteen minutes after the nembutal injection they are injected s.c. according to group with (a) test compound, typically 500-2000 μg/kg; (b) SRIF 200 μg/kg; or (c) physiological saline. Ten minutes later 0.5 ml. of arginine (300 mg/ml, pH 7.2) is injected into the heart. The rats are decapitated five minutes after receiving the arginine, and the blood is collected into Trasylol-EDTA. Appropriate aliquots are then assayed for growth hormone, glucagon and insulin. […] Comparisons between control and experimental values are statistically evaluated by the analysis of variants method and statistical significance (p) at 0.05 or lower is used as the index of activity.

[2] = system: insulin; experiment: Test Procedure II: arginine-stimulated plasma insulin in nembutal-treated rats
Procedure: as §1

[3] = system: glucagon; experiment: Test Procedure II: arginine-stimulated plasma glucagon in nembutal-treated rats
Procedure: as §1

Question: For `C[C@H](N)C(=O)NCC(=O)N[C@H]1CSSC[C@@H](C(=O)O)NC(=O)[C@H](CO)NC(=O)[C@H]([C@@H](C)O)NC(=O)[C@H](Cc2ccccc2)NC(=O)[C@H]([C@@H](C)O)NC(=O)[C@H](CCCCN)NC(=O)[C@H](Cc2c[nH]c3ccccc23)NC(=O)[C@H](Cc2ccccc2)NC(=O)[C@H](Cc2ccccc2)NC(=O)[C@H](CC(N)=O)NC(=O)[C@H](CCCCN)NC1=O` [SRIF, somatostatin], which GH ([1]; 10 μg/kg s.c., control 543 ± 86) is on record?
Answer: 241 ± 15 ng/mL

Question: And the GH ([1]; 20 μg/kg s.c., control 619 ± 103)?
Answer: 232 ± 87 ng/mL

Question: And the GH ([1]; 0.2 mg/kg s.c., control 287 ± 53)?
Answer: 65 ± 16 ng/mL

Question: And the Insulin ([2]; 200 μg/kg s.c., control 167 ± 12, p = <0.01)?
Answer: 117 ± 12 μ units/ml

Question: And the Insulin ([2]; 0.2 mg/kg s.c., control 151 ± 15, p = <0.05)?
Answer: 111 ± 10 μ units/ml

Question: And the Glucagon ([3]; 200 μg/kg s.c., control 62 ± 8, p = <0.01)?
Answer: 13 ± 4 pg/mL

Question: What about the Glucagon ([3]; 0.2 mg/kg s.c., control 20 ± 1, p = <0.05) of the same compound?
Answer: 12 ± 3 pg/mL
